Experimental data taken from ChEMBL document CHEMBL1127585, “Novel 1-phenylcycloalkanecarboxylic acid derivatives are potent and selective sigma 1 ligands” (J Med Chem, 1994).

How the values were obtained:
Glutamate NMDA receptor = assay: Binding affinity towards PCP (1-(1-phenylcyclohexyl)piperidine) receptor.; format: protein-complex assay
Sigma 2 receptor [1] = assay: Tested for its binding affinity towards sigma-2 site using [3H]-DTG as radioligand
[2] = target: T1, Sigma non-opioid intracellular receptor 1 (Rattus norvegicus, UniProt Q9R0C9); assay: Tested for its binding affinity towards sigma-1 site using E3H1-(+)-SKF 10047 as radioligand in rat brain; format: tissue-based
[3] = target: T2, Muscarinic acetylcholine receptor M1 (Homo sapiens, UniProt P11229); assay: Binding affinity towards muscarinic m1 receptor
T2 sequence (P11229 whole entry): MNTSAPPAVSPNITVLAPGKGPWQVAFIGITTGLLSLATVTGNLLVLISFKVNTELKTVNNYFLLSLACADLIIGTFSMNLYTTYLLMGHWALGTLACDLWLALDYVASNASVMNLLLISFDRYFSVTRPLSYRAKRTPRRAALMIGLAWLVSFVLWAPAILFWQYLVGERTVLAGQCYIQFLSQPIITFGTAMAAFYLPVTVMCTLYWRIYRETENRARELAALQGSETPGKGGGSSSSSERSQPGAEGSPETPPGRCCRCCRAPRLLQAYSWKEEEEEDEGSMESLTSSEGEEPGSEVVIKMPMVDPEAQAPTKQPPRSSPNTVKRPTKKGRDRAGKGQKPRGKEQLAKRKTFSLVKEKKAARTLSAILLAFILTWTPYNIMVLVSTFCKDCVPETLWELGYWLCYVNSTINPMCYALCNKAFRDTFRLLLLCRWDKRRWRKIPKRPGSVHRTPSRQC

[4] = target: T3, Muscarinic acetylcholine receptor M2 (Homo sapiens, UniProt P08172); assay: Binding affinity towards muscarinic m2 receptor
T3 sequence (P08172 whole entry): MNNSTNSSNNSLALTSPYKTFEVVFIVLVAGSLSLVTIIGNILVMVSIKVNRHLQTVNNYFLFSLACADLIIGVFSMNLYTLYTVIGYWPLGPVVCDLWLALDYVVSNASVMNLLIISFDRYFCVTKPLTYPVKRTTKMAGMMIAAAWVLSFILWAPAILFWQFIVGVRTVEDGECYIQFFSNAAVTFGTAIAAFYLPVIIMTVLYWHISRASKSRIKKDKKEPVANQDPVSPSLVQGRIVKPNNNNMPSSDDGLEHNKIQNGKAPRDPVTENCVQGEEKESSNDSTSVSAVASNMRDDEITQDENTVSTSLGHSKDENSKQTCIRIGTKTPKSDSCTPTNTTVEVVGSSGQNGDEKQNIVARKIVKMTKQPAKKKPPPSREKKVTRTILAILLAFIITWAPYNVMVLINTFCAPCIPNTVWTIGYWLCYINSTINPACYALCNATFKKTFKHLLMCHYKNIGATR

Sigma 2 receptor [5] = assay: Tested for its binding affinity towards sigma-2 site in rat brain using [3H]DTG as radioligand; format: tissue-based
[6] = target: T1, Sigma non-opioid intracellular receptor 1; assay: Tested for its binding affinity towards sigma-1 site in rat brain using E3H1-(+)-SKF 10047 as radioligand in rat brain; format: tissue-based
[7] = Ratio between the Ki values of m1 and sigma-1 receptors
[8] = target: Sigma non-opioid intracellular receptor 1 (Rattus norvegicus) (UniProt Q9R0C9); assay: Ratio between the Ki values of sigma-2 and sigma-1 receptors
[9] = target: T1, Sigma non-opioid intracellular receptor 1; assay: Tested for its binding affinity towards sigma-1 site in rat brain, using [3H]DTG as radioligand; format: tissue-based
[10] = target: T1, Sigma non-opioid intracellular receptor 1; assay: Tested for its binding affinity towards sigma-1 site in rat brain, using [3H]-(+)-SKF- 10047 as radioligand; format: tissue-based

T1 sequence (Q9R0C9 whole entry): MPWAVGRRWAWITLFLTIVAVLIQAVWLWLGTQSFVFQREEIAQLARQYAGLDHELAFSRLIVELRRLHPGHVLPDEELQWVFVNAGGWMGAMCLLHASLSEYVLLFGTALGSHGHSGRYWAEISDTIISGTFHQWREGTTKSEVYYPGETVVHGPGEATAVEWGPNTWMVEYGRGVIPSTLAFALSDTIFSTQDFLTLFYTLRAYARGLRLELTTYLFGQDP
Sequence of Sigma non-opioid intracellular receptor 1 (Rattus norvegicus) (Q9R0C9 whole entry): as above

Compound	Ki (Glutamate NMDA receptor)	Ki (Sigma 2 receptor [1])	Ki [2]	Ki [3]	Ki [4]	Ki (Sigma 2 receptor [5])	Ki [6]	Ratio [7]	Ratio [8]	Ki [9]	Ki [10]
C=CCN1CCC2c3cc(O)ccc3CC1C2C (stereo unspecified)	Not Active	44 nM	67 nM								
Cc1ccccc1NC(=N)Nc1ccccc1C [DITOLYLGUANIDINE]	Not Active										
CCN(CC)CCOCCOC(=O)C1(c2ccccc2)CCCCC1	Not Active			135 nM	145 nM	780 nM	34 nM	4	23		
CCN(CC)CCOCCOC(=O)C1(c2ccccc2)CCCC1 [CARBETAPENTANE]	Not Active			76 nM	167 nM						
O=C(OCOCCN1CCCC1)C1(c2ccc(Cl)c(Cl)c2)CCCCC1	Not Active			63 nM	74 nM	688 nM	32 nM	2	22		
CCN(CC)CCOCCOC(=O)C1(c2ccccc2)CC1	Not Active			> 10000 nM	> 10000 nM	2910 nM	45 nM	> 220	65		
CCN(CC)CCOCNC(=O)C1(c2ccc(Cl)c(Cl)c2)CCCCC1	Not Active			581 nM	500 nM	527 nM	27 nM	22	20		
CCN(CC)CCOCCOC(=O)C1(c2ccc(OC)cc2)CCCC1				1060 nM	692 nM	1500 nM	59 nM	18	25		
c1ccc(CCCCCNCCCCc2ccccc2)cc1										2 nM	
O=C(OCOCCN1CCOCC1)C1(c2ccc(Cl)c(Cl)c2)CCCCC1	Not Active			3110 nM	1190 nM	981 nM	39 nM	80	25		
CCN(CC)CCOCOC(=O)C1(c2ccc(Cl)c(Cl)c2)CCCCC1	Not Active			20 nM	22 nM	667 nM	22 nM	0.9	30		
O=C(NCOCCN1CCOCC1)C1(c2ccc(Cl)c(Cl)c2)CCCCC1	Not Active			> 10000 nM	> 10000 nM	1640 nM	32 nM	> 310	51		
CCN(CC)CCOCCN(C)CC1(c2ccccc2)CCCC1	Not Active			843 nM	1570 nM	1100 nM	34 nM	25	32		
CCN(CC)CCOCCNC(=O)C1(c2ccccc2)CCCC1	Not Active			> 10000 nM	4900 nM	2840 nM	215 nM	> 46	13		
CCN(CC)CCOCCOC(=O)C(C)c1ccccc1 (stereo unspecified)	Not Active			> 10000 nM	> 10000 nM	3110 nM	40 nM	> 250	78		
CCN(CC)CCOCCOCC1(c2ccccc2)CCCC1	Not Active			910 nM	844 nM	463 nM	27 nM	34	17		
O=C(OCCN1CCOCC1)C1(c2ccccc2)CCCCC1											44 nM
CCN(CC)CCOCCNCC1(c2ccccc2)CCCC1	Not Active			1700 nM	2270 nM	1100 nM	884 nM	1.9	1.2		
CCN(CC)CCOCCOC(=O)C1(c2ccc(Cl)cc2)CCCC1	Not Active			75 nM	97 nM	648 nM	24 nM	3.1	27		
